From patent US9850283B2, “Macrocyclic inhibitors of the PD-1/PD-L1 and CD80(B7-1)/PD-L1 protein/protein interactions” (BRISTOL-MYERS SQUIBB COMPANY, priority 2013, dated 2017)
Positions of bridges follow the written chain, without caps; N, C: chain ends. Non-standard residues stand in square brackets, D forms with d. Residues, ends and D or L forms follow the SMILES beside them. ξ: configuration not given here. Phe(4-Br) = N[C@@H](Cc1ccc(Br)cc1)C(=O)O; Phe(4-Me) = Cc1ccc(C[C@H](N)C(=O)O)cc1; ξPro(4R-OH) = O=C(O)C1C[C@@H](O)CN1; 4Pal = N[C@@H](Cc1ccncc1)C(=O)O; NMeNle = CCCC[C@H](NC)C(=O)O; NMeA = CN[C@@H](C)C(=O)O; Nle = CCCC[C@H](N)C(=O)O; ξPip = O=C(O)C1CCCCN1; ξP = O=C(O)C1CCCN1; Sar = CNCC(=O)O

The compounds below were run against T1, Human PD-L1/PD-1 (Homo sapiens, UniProt Q9NZQ7) (assay: HTRF PD-1-Ig/PD-L1-His binding assay (human PD-L1)). Details: Table 6; read-out: HTRF Human PD-L1/PD-1 Binding Assay IC50.
T1 construct: made in house; host or cells: HEK293T
Source text: The ability of the macrocyclic peptides of the present disclosure to bind to PD-L1 was investigated using a PD-1/PD-L1 Homogenous Time-Resolved Fluorescence (HTRF) binding assay.
Homogenous Time-Resolved Fluorescence (HTRF) Assays of Binding of Soluble PD-1 to Soluble PD-L1. Soluble PD-1 and soluble PD-L1 refers to proteins with carboxyl-end truncations that remove the transmembrane-spanning regions and are fused to heterologous sequences, specifically the Fc portion of the human immunoglobuling G sequence (Ig) or the hexahistidine epitope tag (His). All binding studies were performed in an HTRF assay buffer consisting of dPBS supplemented with 0.1% (w/v) bovine serum albumin and 0.05% (v/v) Tween-20. […] PD-L1 fusion proteins from either human, cynomologous macaques, or mouse were used. HTRF detection was achieved using europium crypate-labeled anti-Ig monoclonal antibody (1 nM final) and allophycocyanin (APC) labeled anti-His monoclonal antibody (20 nM final). Antibodies were diluted in HTRF detection buffer and 5 μl was dispensed on top of binding reaction.

T1 sequence (Q9NZQ7 with tags, fused parts or gaps): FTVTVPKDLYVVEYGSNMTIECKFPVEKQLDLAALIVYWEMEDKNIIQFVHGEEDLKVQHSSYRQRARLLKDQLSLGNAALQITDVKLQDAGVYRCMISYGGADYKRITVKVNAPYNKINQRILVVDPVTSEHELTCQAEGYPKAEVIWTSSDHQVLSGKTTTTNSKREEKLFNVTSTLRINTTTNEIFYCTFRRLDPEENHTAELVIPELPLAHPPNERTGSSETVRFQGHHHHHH

IC50 [nM] | Compound
13 | CCCC[C@H]1C(=O)N(C)[C@@H](CCCC)C(=O)N[C@@H](CC(C)C)C(=O)N[C@H](C(=O)NCC(N)=O)CSCC(=O)N[C@@H](Cc2ccccc2)C(=O)N(C)[C@@H](C)C(=O)N[C@@H](CC(N)=O)C(=O)N2CCC[C@H]2C(=O)N[C@@H](Cc2cnc[nH]2)C(=O)N[C@@H](CCCNC(=N)N)C(=O)N[C@@H](CO)C(=O)N[C@@H](Cc2c[nH]c3ccccc23)C(=O)N[C@@H](CCCNC(=N)N)C(=O)N[C@@H](Cc2c[nH]c3ccccc23)C(=O)N1C [Compound No. 3] ({CH2CO}-F[NMeA]NPHRSWRW[NMeNle][NMeNle]LCG-NH2; thioether N-14)

Same assay, conditions: Table 8, Compound No. 1 variant macrocyclic peptides; read-out: HTRF Human PD-L1/PD-1 Binding Assay IC50

Compound | IC50 [nM]
CCCC[C@H]1C(=O)N(C)[C@@H](CCCC)C(=O)N[C@@H](CCCNC(=N)N)C(=O)N[C@H](C(=O)NCC(N)=O)CSCC(=O)N[C@@H](Cc2ccccc2)C(=O)N(C)[C@@H](C)C(=O)N[C@@H](C)C(=O)N2CCCC2C(=O)N[C@@H](Cc2cnc[nH]2)C(=O)N[C@@H](CC(C)C)C(=O)N(C)CC(=O)N[C@@H](Cc2c[nH]c3ccccc23)C(=O)N[C@@H](CO)C(=O)N[C@@H](Cc2c[nH]c3ccccc23)C(=O)N1C (stereo partly drawn) [Compound No. 8] ({CH2CO}-F[NMeA]A[ξP]HL[Sar]WSW[NMeNle][NMeNle]RCG-NH2; thioether N-14) | 31
CCCC[C@@H]1NC(=O)[C@H](CCCC)N(C)C(=O)[C@H](Cc2c[nH]c3ccccc23)NC(=O)[C@H](CO)NC(=O)[C@H](Cc2c[nH]c3ccccc23)NC(=O)CN(C)C(=O)[C@H](CC(C)C)NC(=O)[C@H](Cc2cnc[nH]2)NC(=O)C2CCCN2C(=O)[C@H](CC(N)=O)NC(=O)[C@H](C)N(C)C(=O)[C@H](Cc2ccccc2)NC(=O)CSC[C@@H](C(=O)NCC(N)=O)NC(=O)[C@H](CCCNC(=N)N)NC1=O (stereo partly drawn) [Compound No. 20] ({CH2CO}-F[NMeA]N[ξP]HL[Sar]WSW[NMeNle][Nle]RCG-NH2; thioether N-14) | 8460
CCCC[C@H]1C(=O)N(C)[C@@H](C)C(=O)N[C@@H](CCCNC(=N)N)C(=O)N[C@H](C(=O)NCC(N)=O)CSCC(=O)N[C@@H](Cc2ccccc2)C(=O)N(C)[C@@H](C)C(=O)N[C@@H](CC(N)=O)C(=O)N2CCCC2C(=O)N[C@@H](Cc2cnc[nH]2)C(=O)N[C@@H](CC(C)C)C(=O)N(C)CC(=O)N[C@@H](Cc2c[nH]c3ccccc23)C(=O)N[C@@H](CO)C(=O)N[C@@H](Cc2c[nH]c3ccccc23)C(=O)N1C (stereo partly drawn) [Compound No. 21] ({CH2CO}-F[NMeA]N[ξP]HL[Sar]WSW[NMeNle][NMeA]RCG-NH2; thioether N-14) | 21
CCCC[C@H]1C(=O)N(C)[C@@H](CCCC)C(=O)N[C@@H](CCCNC(=N)N)C(=O)N[C@H](C(N)=O)CSCC(=O)N[C@@H](Cc2ccccc2)C(=O)N(C)[C@@H](C)C(=O)N[C@@H](CC(N)=O)C(=O)N2CCCC2C(=O)N[C@@H](Cc2cnc[nH]2)C(=O)N[C@@H](CC(C)C)C(=O)N(C)CC(=O)N[C@@H](Cc2c[nH]c3ccccc23)C(=O)N[C@@H](CO)C(=O)N[C@@H](Cc2c[nH]c3ccccc23)C(=O)N1C (stereo partly drawn) [Compound No. 24] ({CH2CO}-F[NMeA]N[ξP]HL[Sar]WSW[NMeNle][NMeNle]RC-NH2; thioether N-14) | 9
CCCC[C@H]1C(=O)N(C)[C@@H](CCCC)C(=O)N[C@@H](CCCNC(=N)N)C(=O)N[C@H](C(=O)NCC(N)=O)CSCC(=O)N[C@@H](Cc2ccc(C)cc2)C(=O)N(C)[C@@H](C)C(=O)N[C@@H](CC(N)=O)C(=O)N2CCC[C@H]2C(=O)N[C@@H](Cc2cnc[nH]2)C(=O)N[C@@H](CC(C)C)C(=O)N(C)CC(=O)N[C@@H](Cc2c[nH]c3ccccc23)C(=O)N[C@@H](CO)C(=O)N[C@@H](Cc2c[nH]c3ccccc23)C(=O)N1C [Compound No. 36] ({CH2CO}-[Phe(4-Me)][NMeA]NPHL[Sar]WSW[NMeNle][NMeNle]RCG-NH2; thioether N-14) | 9
CCCC[C@H]1C(=O)N(C)[C@@H](CCCC)C(=O)N[C@@H](CCCNC(=N)N)C(=O)N[C@H](C(=O)NCC(N)=O)CSCC(=O)N[C@@H](Cc2ccccc2)C(=O)N(C)[C@@H](C)C(=O)N[C@H](CC(N)=O)C(=O)N2CCC[C@H]2C(=O)N[C@@H](Cc2c[nH]cn2)C(=O)N[C@@H](CC(C)C)C(=O)N(C)CC(=O)N[C@@H](Cc2c[nH]c3ccccc23)C(=O)N[C@@H](CO)C(=O)N[C@@H](Cc2c[nH]c3ccccc23)C(=O)N1C [Compound No. 42] ({CH2CO}-F[NMeA][dN]PHL[Sar]WSW[NMeNle][NMeNle]RCG-NH2; thioether N-14) | > 10000
CCCC[C@H]1C(=O)N(C)[C@@H](CCCC)C(=O)N[C@@H](CCCNC(=N)N)C(=O)N[C@H](C(=O)NCC(N)=O)CSCC(=O)N[C@@H](Cc2ccccc2)C(=O)N(C)[C@@H](C)C(=O)N[C@@H](CC(N)=O)C(=O)N2CCCCC2C(=O)N[C@@H](Cc2cnc[nH]2)C(=O)N[C@@H](CC(C)C)C(=O)N(C)CC(=O)N[C@@H](Cc2c[nH]c3ccccc23)C(=O)N[C@@H](CO)C(=O)N[C@@H](Cc2c[nH]c3ccccc23)C(=O)N1C (stereo partly drawn) [Compound No. 44] ({CH2CO}-F[NMeA]N[ξPip]HL[Sar]WSW[NMeNle][NMeNle]RCG-NH2; thioether N-14) | 34

Second part, the compound after the results:

IC50 [nM] | Compound
31 | CCCC[C@H]1C(=O)N(C)[C@@H](CCCC)C(=O)N[C@@H](CCCNC(=N)N)C(=O)N[C@H](C(=O)NCC(N)=O)CSCC(=O)N[C@@H](Cc2ccccc2)C(=O)N(C)[C@@H](C)C(=O)N[C@@H](CC(N)=O)C(=O)N2CCCC2C(=O)N[C@@H](Cc2cnc[nH]2)C(=O)N[C@@H](C)C(=O)N(C)CC(=O)N[C@@H](Cc2c[nH]c3ccccc23)C(=O)N[C@@H](CO)C(=O)N[C@@H](Cc2c[nH]c3ccccc23)C(=O)N1C (stereo partly drawn) [Compound No. 11] ({CH2CO}-F[NMeA]N[ξP]HA[Sar]WSW[NMeNle][NMeNle]RCG-NH2; thioether N-14)
> 30000 | CCCC[C@H]1C(=O)N(C)[C@@H](CCCC)C(=O)N[C@@H](CCCNC(=N)N)C(=O)N[C@H](C(=O)NCC(N)=O)CSCC(=O)N[C@@H](Cc2ccccc2)C(=O)N(C)[C@@H](C)C(=O)N[C@@H](CC(N)=O)C(=O)N2CCCC2C(=O)N[C@@H](Cc2cnc[nH]2)C(=O)N[C@@H](CC(C)C)C(=O)N(C)CC(=O)N[C@@H](C)C(=O)N[C@@H](CO)C(=O)N[C@@H](Cc2c[nH]c3ccccc23)C(=O)N1C (stereo partly drawn) [Compound No. 15] ({CH2CO}-F[NMeA]N[ξP]HL[Sar]ASW[NMeNle][NMeNle]RCG-NH2; thioether N-14)
36 | CCCC[C@@H]1NC(=O)[C@H](Cc2c[nH]c3ccccc23)NC(=O)[C@H](CO)NC(=O)[C@H](Cc2c[nH]c3ccccc23)NC(=O)CN(C)C(=O)[C@H](CC(C)C)NC(=O)[C@H](Cc2cnc[nH]2)NC(=O)C2CCCN2C(=O)[C@H](CC(N)=O)NC(=O)[C@H](C)N(C)C(=O)[C@H](Cc2ccccc2)NC(=O)CSC[C@@H](C(=O)NCC(N)=O)NC(=O)[C@H](CCCNC(=N)N)NC(=O)[C@H](CCCC)N(C)C1=O (stereo partly drawn) [Compound No. 18] ({CH2CO}-F[NMeA]N[ξP]HL[Sar]WSW[Nle][NMeNle]RCG-NH2; thioether N-14)
27 | CCCC[C@H]1C(=O)N(C)[C@@H](CCCC)C(=O)N[C@@H](CCCNC(=N)N)C(=O)N[C@@H](C(=O)NCC(N)=O)CSCC(=O)N[C@@H](Cc2c[nH]c3ccccc23)C(=O)N(C)[C@@H](C)C(=O)N[C@@H](CC(N)=O)C(=O)N2CCC[C@H]2C(=O)N[C@@H](Cc2cnc[nH]2)C(=O)N[C@@H](CC(C)C)C(=O)N(C)CC(=O)N[C@@H](Cc2c[nH]c3ccccc23)C(=O)N[C@@H](CO)C(=O)N[C@@H](Cc2c[nH]c3ccccc23)C(=O)N1C [Compound No. 25] ({CH2CO}-W[NMeA]NPHL[Sar]WSW[NMeNle][NMeNle]R[dC]G-NH2; thioether N-14)
4 | CCCC[C@H]1C(=O)N(C)[C@@H](CCCC)C(=O)N[C@@H](CCCNC(=N)N)C(=O)N[C@H](C(=O)NCC(N)=O)CSCC(=O)N[C@@H](Cc2ccc(Br)cc2)C(=O)N(C)[C@@H](C)C(=O)N[C@@H](CC(N)=O)C(=O)N2CCC[C@H]2C(=O)N[C@@H](Cc2cnc[nH]2)C(=O)N[C@@H](CC(C)C)C(=O)N(C)CC(=O)N[C@@H](Cc2c[nH]c3ccccc23)C(=O)N[C@@H](CO)C(=O)N[C@@H](Cc2c[nH]c3ccccc23)C(=O)N1C [Compound No. 34] ({CH2CO}-[Phe(4-Br)][NMeA]NPHL[Sar]WSW[NMeNle][NMeNle]RCG-NH2; thioether N-14)
33 | CCCC[C@H]1C(=O)N(C)[C@@H](CCCC)C(=O)N[C@@H](CCCNC(=N)N)C(=O)N[C@H](C(=O)NCC(N)=O)CSCC(=O)N[C@@H](Cc2ccncc2)C(=O)N(C)[C@@H](C)C(=O)N[C@@H](CC(N)=O)C(=O)N2CCC[C@H]2C(=O)N[C@@H](Cc2cnc[nH]2)C(=O)N[C@@H](CC(C)C)C(=O)N(C)CC(=O)N[C@@H](Cc2c[nH]c3ccccc23)C(=O)N[C@@H](CO)C(=O)N[C@@H](Cc2c[nH]c3ccccc23)C(=O)N1C [Compound No. 39] ({CH2CO}-[4Pal][NMeA]NPHL[Sar]WSW[NMeNle][NMeNle]RCG-NH2; thioether N-14)
27 | CCCC[C@H]1C(=O)N(C)[C@@H](CCCC)C(=O)N[C@@H](CCCNC(=N)N)C(=O)N[C@H](C(=O)NCC(N)=O)CSCC(=O)N[C@@H](Cc2ccccc2)C(=O)N(C)[C@@H](C)C(=O)N[C@@H](CC(N)=O)C(=O)N2C[C@H](O)CC2C(=O)N[C@@H](Cc2cnc[nH]2)C(=O)N[C@@H](CC(C)C)C(=O)N(C)CC(=O)N[C@@H](Cc2c[nH]c3ccccc23)C(=O)N[C@@H](CO)C(=O)N[C@@H](Cc2c[nH]c3ccccc23)C(=O)N1C (stereo partly drawn) [Compound No. 47] ({CH2CO}-F[NMeA]N[ξPro(4R-OH)]HL[Sar]WSW[NMeNle][NMeNle]RCG-NH2; thioether N-14)
